From the NIST ThermoML archive (doi:10.1016/j.jct.2016.12.012)
“And” between values parts separate entries of the source, which are not always exact repeats. Identical values can stand only once.

Assays:
[1] = for Normal melting temperature: DTA
[2] = Molar enthalpy of transition or fusion; settings: Crystal; DSC

COc1ccc(C(C)=O)cc1 [4'-methoxyacetophenone]
[1]
Settings | vapor or sublimation pressure [kPa]
296.23 K, Crystal, Closed cell (Static) method | 0.00059
298.19 K, Crystal, Closed cell (Static) method | 0.00075
300.19 K, Crystal, Closed cell (Static) method | 0.00096
302.13 K, Metastable liquid, Closed cell (Static) method | 0.00143
302.18 K, Crystal, Closed cell (Static) method | 0.00121
304.14 K, Metastable liquid, Closed cell (Static) method | 0.00174
304.15 K, Crystal, Closed cell (Static) method | 0.00153
306.09 K, Metastable liquid, Closed cell (Static) method | 0.00209
306.12 K, Crystal, Closed cell (Static) method | 0.00192
308.1 K, Crystal, Closed cell (Static) method | 0.00239
308.12 K, Metastable liquid, Closed cell (Static) method | 0.00251
310.08 K, Metastable liquid, Closed cell (Static) method | 0.00301
312.06 K, Closed cell (Static) method, Liquid | 0.0036
314.2 K, Closed cell (Static) method, Liquid | 0.00436
316.08 K, Closed cell (Static) method, Liquid | 0.00516
318.02 K, Closed cell (Static) method, Liquid | 0.0061
320.04 K, Closed cell (Static) method, Liquid | 0.00716
321.98 K, Closed cell (Static) method, Liquid | 0.00847
324.01 K, Closed cell (Static) method, Liquid | 0.01002
326 K, Closed cell (Static) method, Liquid | 0.01174
327.92 K, Closed cell (Static) method, Liquid | 0.01375
329.93 K, Closed cell (Static) method, Liquid | 0.01614
331.9 K, Closed cell (Static) method, Liquid | 0.0189
333.88 K, Closed cell (Static) method, Liquid | 0.02202
335.86 K, Closed cell (Static) method, Liquid | 0.02563
337.93 K, Closed cell (Static) method, Liquid | 0.02998
339.82 K, Closed cell (Static) method, Liquid | 0.03463
341.89 K, Closed cell (Static) method, Liquid | 0.04012
343.72 K, Closed cell (Static) method, Liquid | 0.04593
345.84 K, Closed cell (Static) method, Liquid | 0.05323
347.69 K, Closed cell (Static) method, Liquid | 0.06033
349.8 K, Closed cell (Static) method, Liquid | 0.06953
351.63 K, Closed cell (Static) method, Liquid | 0.07823
353.72 K, Closed cell (Static) method, Liquid | 0.09003
355.73 K, Closed cell (Static) method, Liquid | 0.1035

Settings | Normal melting temperature [°C]
[1], Crystal | 37.2

Settings | Molar enthalpy of transition or fusion [kcal/mol]
[2] | 4.02

CC(=O)Oc1ccccc1C(C)=O [2'-acetoxyacetophenone]
[1]
Settings | vapor or sublimation pressure
298.01 K, Crystal, Calculated from knudsen effusion weight loss | 6.1e-05 kPa and 6e-05 kPa
299.4 K, Crystal, Calculated from knudsen effusion weight loss | 7.4e-05 kPa
301.22 K, Crystal, Calculated from knudsen effusion weight loss | 9.7e-05 kPa and 9.6e-05 kPa
303.17 K, Crystal, Calculated from knudsen effusion weight loss | 0.000121 kPa and 0.000122 kPa and 0.000124 kPa
305.39 K, Crystal, Calculated from knudsen effusion weight loss | 0.000164 kPa and 0.000166 kPa
307.2 K, Crystal, Calculated from knudsen effusion weight loss | 0.000214 kPa and 0.000217 kPa and 0.000215 kPa
309.14 K, Crystal, Calculated from knudsen effusion weight loss | 0.000275 kPa and 0.000277 kPa
311.34 K, Crystal, Calculated from knudsen effusion weight loss | 0.000362 kPa and 0.000361 kPa and 0.000365 kPa
313 K, Crystal, Closed cell (Static) method | 0.00046 kPa
313.21 K, Crystal, Calculated from knudsen effusion weight loss | 0.000467 kPa and 0.000465 kPa and 0.000469 kPa
315.01 K, Crystal, Closed cell (Static) method | 0.0006 kPa
315.13 K, Crystal, Calculated from knudsen effusion weight loss | 0.00059 kPa and 0.000588 kPa and 0.000593 kPa
316.99 K, Crystal, Closed cell (Static) method | 0.00076 kPa
317.31 K, Crystal, Calculated from knudsen effusion weight loss | 0.000786 kPa and 0.000778 kPa
318.98 K, Crystal, Closed cell (Static) method | 0.00097 kPa
319.28 K, Crystal, Calculated from knudsen effusion weight loss | 0.00102 kPa and 0.001014 kPa and 0.001001 kPa
320.96 K, Crystal, Closed cell (Static) method | 0.00123 kPa
321.27 K, Crystal, Calculated from knudsen effusion weight loss | 0.001305 kPa and 0.001292 kPa and 0.001286 kPa
322.97 K, Crystal, Closed cell (Static) method | 0.00156 kPa
324.96 K, Crystal, Closed cell (Static) method | 0.00199 kPa
326.91 K, Crystal, Closed cell (Static) method | 0.0025 kPa
328.91 K, Crystal, Closed cell (Static) method | 0.00314 kPa
330.92 K, Crystal, Closed cell (Static) method | 0.00397 kPa
332.88 K, Crystal, Closed cell (Static) method | 0.00495 kPa
334.86 K, Crystal, Closed cell (Static) method | 0.00619 kPa
336.81 K, Crystal, Closed cell (Static) method | 0.00762 kPa
338.84 K, Crystal, Closed cell (Static) method | 0.00958 kPa
340.8 K, Crystal, Closed cell (Static) method | 0.01175 kPa
342.74 K, Crystal, Closed cell (Static) method | 0.01458 kPa
344.72 K, Crystal, Closed cell (Static) method | 0.01786 kPa
344.73 K, Metastable liquid, Closed cell (Static) method | 0.03005 kPa
346.7 K, Crystal, Closed cell (Static) method | 0.02195 kPa
346.73 K, Metastable liquid, Closed cell (Static) method | 0.03465 kPa
348.65 K, Metastable liquid, Closed cell (Static) method | 0.03975 kPa
348.68 K, Crystal, Closed cell (Static) method | 0.02665 kPa
350.65 K, Metastable liquid, Closed cell (Static) method | 0.04556 kPa
350.69 K, Crystal, Closed cell (Static) method | 0.0325 kPa
352.61 K, Crystal, Closed cell (Static) method | 0.0395 kPa
352.64 K, Metastable liquid, Closed cell (Static) method | 0.05208 kPa
354.59 K, Metastable liquid, Closed cell (Static) method | 0.05928 kPa
354.61 K, Crystal, Closed cell (Static) method | 0.04802 kPa
356.54 K, Crystal, Closed cell (Static) method | 0.05812 kPa
356.54 K, Metastable liquid, Closed cell (Static) method | 0.06775 kPa
358.51 K, Metastable liquid, Closed cell (Static) method | 0.07683 kPa
360.53 K, Metastable liquid, Closed cell (Static) method | 0.08729 kPa
362.46 K, Metastable liquid, Closed cell (Static) method | 0.0988 kPa
364.45 K, Closed cell (Static) method, Liquid | 0.1124 kPa
366.49 K, Closed cell (Static) method, Liquid | 0.127 kPa
368.43 K, Closed cell (Static) method, Liquid | 0.1443 kPa
370.48 K, Closed cell (Static) method, Liquid | 0.162 kPa
372.37 K, Closed cell (Static) method, Liquid | 0.1819 kPa
374.39 K, Closed cell (Static) method, Liquid | 0.205 kPa
376.34 K, Closed cell (Static) method, Liquid | 0.2324 kPa
378.28 K, Closed cell (Static) method, Liquid | 0.2588 kPa
380.23 K, Closed cell (Static) method, Liquid | 0.2847 kPa
382.24 K, Closed cell (Static) method, Liquid | 0.3195 kPa
384.15 K, Closed cell (Static) method, Liquid | 0.3609 kPa
386.19 K, Closed cell (Static) method, Liquid | 0.3984 kPa
388.15 K, Closed cell (Static) method, Liquid | 0.4446 kPa
390.12 K, Closed cell (Static) method, Liquid | 0.4936 kPa
392.04 K, Closed cell (Static) method, Liquid | 0.5463 kPa
394.07 K, Closed cell (Static) method, Liquid | 0.6059 kPa
395.98 K, Closed cell (Static) method, Liquid | 0.6687 kPa
398 K, Closed cell (Static) method, Liquid | 0.7392 kPa

Settings | Normal melting temperature [°C]
[1], Crystal | 88.7

Settings | Molar enthalpy of transition or fusion [kcal/mol]
[2] | 7.72
